Experimental findings from patent publication US7723329B2, “Substituted-3-sulfonylindazole derivatives as 5-hydroxytryptamine-6 ligands” (Wyeth LLC, priority 2005, dated 2010) are described below.

Data set [1] concerns the target T1, human cloned 5-HT6 receptors (Homo sapiens, UniProt P50406).
T1 construct: expressed in transfected cells; host or cells: HeLa cells
As to the kind of experiment: 5-HT6 binding affinity, [3H]-LSD displacement. Particulars: membranes of Hela cells expressing human cloned 5-HT6 receptors; [3H]-LSD 3.0 nM; 120 minutes at room temperature.

Where a name gives a salt, the structure may show the parent alone.

T1 sequence (P50406 whole entry): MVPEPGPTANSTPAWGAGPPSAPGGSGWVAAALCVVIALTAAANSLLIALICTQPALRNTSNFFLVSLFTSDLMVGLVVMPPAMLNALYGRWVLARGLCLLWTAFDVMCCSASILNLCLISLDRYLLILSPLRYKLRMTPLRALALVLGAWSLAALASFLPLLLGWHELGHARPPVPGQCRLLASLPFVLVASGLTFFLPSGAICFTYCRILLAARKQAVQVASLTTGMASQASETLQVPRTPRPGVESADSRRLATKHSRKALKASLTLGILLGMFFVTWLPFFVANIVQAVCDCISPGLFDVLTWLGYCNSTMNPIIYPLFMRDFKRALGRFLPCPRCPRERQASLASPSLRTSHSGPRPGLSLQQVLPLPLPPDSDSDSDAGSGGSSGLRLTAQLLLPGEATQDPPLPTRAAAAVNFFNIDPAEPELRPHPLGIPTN

For the compound `CN1CCN(Cc2ccc3[nH]nc(S(=O)(=O)c4cccc5ccccc45)c3c2)CC1` (as salt: HCl) [Example 196], the melting point is over 200 °C.
In the case of `CNCCOc1ccc2c(c1)c(S(=O)(=O)c1cccc3ccccc13)nn2C` (as salt: hydrochloride) [Example 40, Methyl-{2-[1-methyl-3-(naphthalene-1-sulfonyl)-1H-indazol-5-yloxy]-ethyl}-amine], the melting point is 272 to 274 °C (dec.).
In the case of `CC(C)NCCOc1ccc2c(c1)c(S(=O)(=O)c1cccc3ccccc13)nn2C` (as salt: hydrochloride) [Example 45, Isopropyl-{2-[1-methyl-3-(naphthalene-1-sulfonyl)-1H-indazol-5-yloxy]-ethyl}-amine], the melting point was 274 to 276 °C (dec.).
For the compound `C[C@H]1CN(Cc2ccc3[nH]nc(S(=O)(=O)c4cccc5ccccc45)c3c2)CCN1` (as salt: HCl) [Example 199], the melting point fell in the range of 178 to 181 °C.
The same measure, in the same setting: then `CN(C)CCc1cccc2c(S(=O)(=O)c3ccccc3)n[nH]c12` (as salt: hydrochloride) [Example 171, N,N-Dimethyl-N-{2-[3-(phenylsulfonyl)-1H-indazol-7-yl]ethyl}amine hydrochloride], with 76 to 80 °C; and `CN(C)CCN(C)Cc1ccc2[nH]nc(S(=O)(=O)c3cccc4ccccc34)c2c1` (as salt: hydrochloride) [Example 153, N,N, N′-Trimethyl-N′-{[3-(1-naphthylsulfonyl)-1H-indazol-5-yl]methyl}ethane-1,2-diamine], with over 200 °C.
Same read-out and setting: then `NCCCc1ccc2[nH]nc(S(=O)(=O)c3ccccc3)c2c1` (as salt: trifluoroacetate) [Example 180, {3-[3-(Phenylsulfonyl)-1H-indazol-5-yl]propyl}amine trifluoroacetate], with 92 to 94 °C; and `NCCNCc1ccc2[nH]nc(S(=O)(=O)c3cccc4ccccc34)c2c1` (as salt: hydrochloride) [Example 155, N{[3-(1-Naphthylsulfonyl)-1H-indazol-5yl]methyl}ethane-1.2-diamine], with over 200 °C.
`CN(C)CCc1cccc2c(S(=O)(=O)c3ccccc3)n[nH]c12` [Example 171, N,N-Dimethyl-N-{2-[3-(phenylsulfonyl)-1H-indazol-7-yl]ethyl}amine hydrochloride] showed a Ki in data set [1] of 0.01 to 10 nM.
`CCN(CC)CCOc1cccc2c(S(=O)(=O)c3ccccc3)nn(Cc3cccc(Cl)c3)c12` [Example 84] displayed a Ki in data set [1] of over 45 nM.
Same read-out and setting: then `CN(C)CCOc1cccc2c(S(=O)(=O)c3cccc4ccccc34)n[nH]c12` [Example 78], with 0.01 to 10 nM; and `O=S(=O)(c1ccccc1)c1n[nH]c2c(OCCN3CCCC3)cccc12` [Example 92], with 0.01 to 10 nM.
In turn, `CN(C)CCOc1cc(F)cc2c(S(=O)(=O)c3cccc4ccccc34)nn(Cc3cccc(Cl)c3)c12` [Example 109] yielded an inhibition constant (Ki) in data set [1] of 11 to 25 nM.
Still for that read-out and setting: then `O=S(=O)(c1cccc2ccccc12)c1n[nH]c2cc(OCCN3CCCC3)ccc12` [Example 150], with over 45 nM; and `CN(C)CCOc1ccc2c(c1)c(S(=O)(=O)c1cccc3ccccc13)nn2Cc1cccc(Cl)c1` [Example 54, {2-[1-(3-Chloro-benzyl)-3-(naphthalene-1-sulfonyl)-1H-indazol-5-yloxy]-ethyl}-dimethyl-amine], with 11 to 25 nM; and `CNCCOc1ccc2c(S(=O)(=O)c3cccc4ccccc34)n[nH]c2c1` [Example 147, N-Methyl-2-{[3-(1-naphthylsulfonyl)-1H-indazol-6-yl]oxy}ethanamine Hydrochloride], with 11 to 25 nM.
Regarding `COc1cc(OCCN2CCCC2)c2c(c1)c(S(=O)(=O)c1cccc3ccccc13)nn2Cc1cccc(Cl)c1` [Example 123], the inhibitory constant (Ki) in data set [1] is over 45 nM.
The same measure, in the same setting: then `CCN(CC)CCOc1ccc2[nH]nc(S(=O)(=O)c3cccc4ccccc34)c2c1` [Example 33, Diethyl-{2-[3-(naphthalene-1-sulfonyl)-1H-indazol-5-yloxy]-ethyl}-amine], with 0.01 to 10 nM; and `C[C@H]1CN(Cc2ccc3[nH]nc(S(=O)(=O)c4cccc5ccccc45)c3c2)CCN1` [Example 199], with 11 to 25 nM.
The same measure, in the same setting: then `O=S(=O)(c1cccc2ccccc12)c1n[nH]c2cc(OCCN3CCCCC3)ccc12` [Example 149], with over 45 nM.
The compound `CCN(CC)CCOc1ccc2c(c1)c(S(=O)(=O)c1cccc3ccccc13)nn2Cc1ccccc1` [Example 50, {2-[1-Benzyl-3-(naphthalene-1-sulfonyl)-1H-indazol-5-yloxy]-ethyl}-diethyl-amine] showed a Ki in data set [1] of 36 to 45 nM.
On the same count and under the same terms, then `CN(C)CCC(=O)Nc1ccc2c(S(=O)(=O)c3cccc4ccccc34)n[nH]c2c1` [Example 168, 3-Dimethylamino-N-[3-(naphthalene-1-sulfonyl)-1H-indazol-6-yl]-propionamide hydrochloride], with 36 to 45 nM.
On to `NCCOc1cc(F)cc2c(S(=O)(=O)c3cccc4ccccc34)nn(Cc3cccc(Cl)c3)c12` [Example 106, (2-{[1-(3-Chlorobenzyl)-5-fluoro-3-(1-naphthylsulfonyl)-1H-indazol-7-yl]oxy}ethyl)amine], for which the Ki in data set [1] is over 45 nM.
In turn, `O=S(=O)(c1ccccc1)c1n[nH]c2ccc(CCCNC3CC3)cc12` [Example 178, N{3-[3-(Phenylsulfonyl)-1H-indazol-5-yl]propyl}cyclopropanamine trifluoroacetate] gave a Ki in data set [1] of 11 to 25 nM.
The same measure, in the same setting: then `CCN(CC)CCOc1ccc2[nH]nc(S(=O)(=O)c3ccccc3)c2c1` [Example 5, [2-(3-Benzenesulfonyl-1H-indazol-5-yloxy)-ethyl]-diethyl-amine], with 36 to 45 nM; and `O=S(=O)(c1cccc2ccccc12)c1n[nH]c2ccc(OCCNC3CC3)cc12` [Example 36, Cyclopropyl-{2-[3-(naphthalene-1-sulfonyl)-1H-indazol-5-yloxy]-ethyl}-amine], with 0.01 to 10 nM; and `Cn1nc(S(=O)(=O)c2cccc3ccccc23)c2cccc(OCCN3CCCC3)c21` [Example 100], with 11 to 25 nM.
The same measure, in the same setting: then `CCN(C)CCOc1ccc2c(c1)c(S(=O)(=O)c1cccc3ccccc13)nn2Cc1cccc(Cl)c1` [Example 55, {2-[1-(3-Chloro-benzyl)-3-(naphthalene-1-sulfonyl)-1H-indazol-5-yloxy]-ethyl}-ethyl-methyl-amine], with over 45 nM; and `O=S(=O)(c1ccccc1)c1n[nH]c2ccc(OCCN3CCCCC3)cc12` [Example 3, 3-Benzenesulfonyl-5-(2-piperidin-1-yl-ethoxy)-1H-indazole], with 26 to 35 nM.
Still for that read-out and setting: then `O=C(NCCN1CCCCC1)c1ccc2[nH]nc(S(=O)(=O)c3cccc4ccccc34)c2c1` [Example 152, 3-(1-Naphtylsulfonyl)-N-(2-piperidin-1-ylethyl)-1H-indazole-5-carboxamide], with over 45 nM; and `CCN(C)CCOc1ccc2[nH]nc(S(=O)(=O)c3cccc4ccccc34)c2c1` [Example 29, Ethyl-methyl-{2-[3-(naphthalene-1-sulfonyl)-1H-indazol-5-yloxy]-ethyl}-amine], with 0.01 to 10 nM.
Consider `O=S(=O)(c1ccccc1)c1n[nH]c2ccc(OCCN3CCOCC3)cc12` [Example 10, 3-Benzenesulfonyl-5-(2-morpholin-4-yl-ethoxy)-1H-indazole], for which the Ki in data set [1] is over 45 nM.
On the same count and under the same terms, then `O=S(=O)(c1cccc2ccccc12)c1nn(Cc2cccc(Cl)c2)c2c(OCCCN3CCCC3)cccc12` [Example 133], with 11 to 25 nM.
